Measured values: ChEMBL document CHEMBL5241120, “Insights into the medicinal chemistry of heterocycles integrated with a pyrazolo[1,5-a]pyrimidine scaffold” (RSC Med Chem, 2022)
In brackets after ≈: the same amount, converted by molar mass.

What was measured:
HEK293 = assay: Cytotoxicity against HEK293 cells; assay type: functional, Homo sapiens
[1] = Inhibition of Hepatitis C virus NS3 protease; assay type: functional, Hepacivirus hominis
HCT-116 = assay: Cytotoxicity against human HCT-116 cells; assay type: functional
Rattus norvegicus [2] = assay: Antiinflammatory activity in rat assessed as inhibition of carrageenan induced paw edema at 50 mg/kg; assay type: functional; parameters: scale not given: the % may be the effect or the level left
[3] = biological target: T1, Prostaglandin G/H synthase 1 (Ovis aries, UniProt P05979); assay: Inhibition of ovine COX-1
T1 sequence (P05979 whole entry): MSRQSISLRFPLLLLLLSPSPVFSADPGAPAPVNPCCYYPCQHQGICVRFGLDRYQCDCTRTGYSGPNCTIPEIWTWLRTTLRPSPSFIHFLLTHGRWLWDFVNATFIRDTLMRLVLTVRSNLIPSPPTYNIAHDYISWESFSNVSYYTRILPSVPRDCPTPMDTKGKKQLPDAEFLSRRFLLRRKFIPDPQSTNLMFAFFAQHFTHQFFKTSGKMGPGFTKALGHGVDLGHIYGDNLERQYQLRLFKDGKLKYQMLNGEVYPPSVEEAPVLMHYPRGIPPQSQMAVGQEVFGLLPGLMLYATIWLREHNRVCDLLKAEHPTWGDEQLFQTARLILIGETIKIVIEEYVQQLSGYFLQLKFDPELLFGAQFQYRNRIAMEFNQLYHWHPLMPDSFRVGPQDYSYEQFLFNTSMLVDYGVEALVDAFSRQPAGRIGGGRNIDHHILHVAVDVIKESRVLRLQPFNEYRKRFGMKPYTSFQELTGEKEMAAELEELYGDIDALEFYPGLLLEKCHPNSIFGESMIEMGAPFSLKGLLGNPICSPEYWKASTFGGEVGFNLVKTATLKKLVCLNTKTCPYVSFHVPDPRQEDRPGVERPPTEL

RAW264.7 [4] = assay: Antiinflammatory activity in mouse RAW264.7 cells assessed as decrease in IL-6 secretion; assay type: functional; parameters: scale not given: the % may be the effect or the level left
[5] = Inhibition of soybean 15-LOX; parameters: species or system Glycine max
RAW264.7 [6] = assay: Antiinflammatory activity in mouse RAW264.7 cells assessed as decrease in TNFalpha secretion; assay type: functional; parameters: scale not given: the % may be the effect or the level left
Rattus norvegicus [7] = assay: Antiinflammatory activity in rat assessed as inhibition of carrageenan induced paw edema; assay type: functional
CHO-K1 = assay: Cytotoxicity against CHO-K1 cells by MTT assay; assay type: toxicity, cell-based, Cricetulus griseus; parameters: concentration or dose not given beside the values; conditions: chinese hamster
Mus musculus = assay: Antiinflammatory activity in mouse assessed as inhibition of paw edema after 24 hrs; assay type: functional; parameters: scale not given: the % may be the effect or the level left
[8] = biological target: T2, liver carboxylesterase (CES) (Sus scrofa, UniProt Q29550); assay: Inhibition of pig liver CES at 20 uM relative to control; assay type: tissue-based
T2 sequence (Q29550 whole entry): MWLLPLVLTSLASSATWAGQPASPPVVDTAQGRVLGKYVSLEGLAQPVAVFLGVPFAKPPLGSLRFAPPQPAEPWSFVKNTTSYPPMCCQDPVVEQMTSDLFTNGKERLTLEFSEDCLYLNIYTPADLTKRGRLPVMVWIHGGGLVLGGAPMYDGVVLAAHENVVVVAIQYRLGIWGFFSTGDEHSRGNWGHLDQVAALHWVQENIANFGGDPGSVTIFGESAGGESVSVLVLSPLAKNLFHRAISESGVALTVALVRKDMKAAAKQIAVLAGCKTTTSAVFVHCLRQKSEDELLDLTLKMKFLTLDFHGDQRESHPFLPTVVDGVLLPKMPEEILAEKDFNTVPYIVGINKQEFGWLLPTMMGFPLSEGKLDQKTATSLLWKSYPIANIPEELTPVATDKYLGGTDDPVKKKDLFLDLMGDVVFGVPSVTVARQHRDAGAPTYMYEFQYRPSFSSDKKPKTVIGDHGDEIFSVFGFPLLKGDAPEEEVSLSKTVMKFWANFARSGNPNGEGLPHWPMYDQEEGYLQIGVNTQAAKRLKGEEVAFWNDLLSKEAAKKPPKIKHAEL

Rattus norvegicus [9] = assay: Analgesic activity in Sprague-Dawley rat at 15 mg/kg after 1 hr by hot plate test; assay type: functional
Rattus norvegicus [10] = assay: Analgesic activity in Sprague-Dawley rat at 15 mg/kg after 2 hrs by hot plate test; assay type: functional
[11] = Antioxidant activity assessed as ABTS radical scavenging activity; assay type: functional
Staphylococcus aureus [12] = assay: Antibacterial activity against Staphylococcus aureus assessed as zone of inhibition at 5 mg/ml; assay type: functional; conditions: read-out: IZ
Escherichia coli [13] = assay: Antibacterial activity against Escherichia coli assessed as zone of inhibition; assay type: functional
Staphylococcus aureus [14] = assay: Antibacterial activity against Staphylococcus aureus assessed as zone of inhibition; assay type: functional
Aspergillus niger = assay: Antifungal activity against Aspergillus niger; assay type: functional
Pseudomonas aeruginosa [15] = assay: Antibacterial activity against Pseudomonas aeruginosa; assay type: functional
Pseudomonas aeruginosa [16] = assay: Antibacterial activity against Pseudomonas aeruginosa assessed as zone of inhibition; assay type: functional
Bacillus subtilis [17] = assay: Antibacterial activity against Bacillus subtilis assessed as zone of inhibition; assay type: functional
Staphylococcus aureus [18] = assay: Antibacterial activity against Staphylococcus aureus; assay type: functional
Escherichia coli [19] = assay: Antibacterial activity against Escherichia coli; assay type: functional
Bacillus subtilis [20] = assay: Antibacterial activity against Bacillus subtilis; assay type: functional
Candida albicans = assay: Antifungal activity against Candida albicans assessed as zone of inhibition; assay type: functional
Aspergillus clavatus = assay: Antifungal activity against Aspergillus clavatus; assay type: functional
Escherichia coli [21] = assay: Antibacterial activity against Escherichia coli assessed as zone of inhibition at 5 mg/ml; assay type: functional; conditions: read-out: IZ

## Clc1ccc(-c2cc3nccc(-c4ccc(Cl)cc4)n3n2)cc1
HEK293
  Activity: 44.2%

## N#C/C(=C/c1ccc(Cl)cc1)c1nn2c(-c3cccs3)cc(C(F)(F)F)nc2c1C#N
[1]
  IC50: 7.33 µg/mL (≈ 16.1 µM)

## COc1ccc(-c2cc3nccc(-c4ccccc4)n3n2)cc1
HCT-116
  Activity: 26%

## COc1ccnc(Nc2nn3c(SC)c(C#N)c(O)nc3c2C#N)c1
Rattus norvegicus [2]
  Activity: 46%
[3]
  IC50: 12.6 µM
RAW264.7 [4]
  Activity: 80%
[5]
  IC50: 18.4 µM
RAW264.7 [6]
  Activity: 89%
Rattus norvegicus [7]
  ED50: 35 mg/kg

## COc1ccc(-c2cnc3c(C(=O)Nc4c(C)n(C)n(-c5ccccc5)c4=O)cnn3c2N)cc1
CHO-K1
  Activity: 72.96%
Mus musculus
  Activity: 25%

## CC1=Nc2cc(-c3ccccc3)nn2C(=O)/C1=N\Nc1ccc(C)cc1
[8]
  inhibition at 20 µM: 22.8%
Rattus norvegicus [9]
  Activity: 43.9%
Rattus norvegicus [10]
  Activity: 65.9%
[11]
  Activity: 0.21 µM

## Nc1nc2c(/N=N/c3ccc(C(F)(F)F)cc3)c(N)nn2c(N)c1/N=N/c1ccc(F)cc1
Staphylococcus aureus [12]
  zone of inhibition at 5000 µg/mL: 10 mm

## Cc1ccc(N/N=C2\C(=O)n3nc(-c4ccccc4)cc3N=C2C(F)(F)F)cc1
[8]
  inhibition at 20 µM: 2.91%
Rattus norvegicus [10]
  Activity: 47.4%
[11]
  Activity: 0.19 µM

## NC(=O)c1c(Nc2ccccc2)nn2c(-c3ccccc3)ccnc12
Escherichia coli [13]
  inhibition zone (IZ): 7 mm
Staphylococcus aureus [14]
  inhibition zone (IZ): 10 mm
Aspergillus niger
  MIC: 15.6 µg/mL (≈ 47.4 µM)
Pseudomonas aeruginosa [15]
  MIC: 7.81 µg/mL (≈ 23.7 µM)
Pseudomonas aeruginosa [16]
  inhibition zone (IZ): 9 mm
Bacillus subtilis [17]
  inhibition zone (IZ): 12 mm
Staphylococcus aureus [18]
  MIC: 7.81 µg/mL (≈ 23.7 µM)
Escherichia coli [19]
  MIC: 15.6 µg/mL (≈ 47.4 µM)
Bacillus subtilis [20]
  MIC: 3.9 µg/mL (≈ 11.8 µM)

## Cc1c(C)c2c(c(C)c1O)CCC(C)(C(=O)O)O2 (stereo unspecified)
[11]
  Activity: 1 µM

## COc1ccc(-c2ccnc3cc(-c4ccccc4)nn23)cc1
HEK293
  Activity: 48%

## Cc1cc(NN2C(=O)C3CCCCC3C2=O)n2ncc(C#N)c2n1 (stereo unspecified)
Aspergillus niger
  MIC: 10 µg/mL (≈ 30.8 µM)
Candida albicans
  inhibition zone (IZ): 19.1 mm
Escherichia coli [19]
  MIC: 10 µg/mL (≈ 30.8 µM)
Bacillus subtilis [20]
  MIC: 10 µg/mL (≈ 30.8 µM)
Aspergillus clavatus
  MIC: 10 µg/mL (≈ 30.8 µM)

## Nc1nc2c(/N=N/c3ccc(F)cc3)c(N)nn2c(N)c1/N=N/c1ccc(F)cc1
Escherichia coli [21]
  zone of inhibition at 5000 µg/mL: 10 mm

## Cc1ccc(-n2cnc3c(cnn3-c3cc(C)nc4c(C#N)cnn34)c2=O)cc1
Escherichia coli [13]
  inhibition zone (IZ): 12.2 mm
Aspergillus niger
  MIC: 10 µg/mL (≈ 26.2 µM)
Bacillus subtilis [17]
  inhibition zone (IZ): 14 mm
Aspergillus clavatus
  MIC: 10 µg/mL (≈ 26.2 µM)

## CC(C)OC(=O)[C@H](C)N[P@](=O)(OC[C@H]1O[C@@H](n2ccc(=O)[nH]c2=O)[C@](C)(F)[C@@H]1O)Oc1ccccc1 [SOFOSBUVIR]
[1]
  IC50: 3.2 µg/mL (≈ 6.04 µM)
